Test results from patent US9872494B2, “Active ingredient combinations comprising pyridylethylbenzamides and other active ingredients” (priority 2010, dated 2018).

Legend:
Type in all cases: in vivo
[1] = tested on: green peach aphid (Myzus persicae); test: Myzus test (spray treatment), Chinese cabbage leaf disks; conditions: for Mortality in % after 1d: spray
From the text: (§1) If the actual insecticide mortality is greater than calculated, then the combination is superadditive in its kill—that is, there is a synergistic effect. In this case the mortality actually observed must be greater than the value for the expected mortality (E) calculated on the basis of the formula given above.
Myzus Test (Spray Treatment)
Solvent: 78 parts by weight of acetone
• 1.5 parts by weight of dimethylformamide Emulsifier: 0.5 part by weight of alkylaryl polyglycol ether
A suitable preparation of active ingredient is prepared by mixing one part by weight of active ingredient with the stated amounts of solvent and emulsifier and diluting the concentrate with emulsifier-containing water to the desired concentration. A suitable suspension of biological agent is prepared by dissolving the cells, spores or viruses in emulsifier-containing water in the desired concentration.
Chinese cabbage (Brassica pekinensis) leaf disks infested by all stages of the green peach aphid (Myzus persicae) are sprayed with an active ingredient and/or biological agent preparation in the desired concentration.
After the desired time, the effect in % is ascertained. Here, 100% means that all of the aphids have been killed; 0% means that no aphids have been killed. The mortality figures determined are used for calculation according to the Colby formula (see sheet 1).

[2] = tested on: cotton (Gossypium hirsutum); test: Seed treatment - cotton emergence test; conditions: after 2 days
From the text: Seed Treatment—Cotton Emergence Test
Seed of cotton (Gossypium hirsutum) is mixed with the desired amount of active ingredient and spores and also water. After drying, 25 seed grains in each case are sown in pots filled with sandy loam.
After 2 days, the effect in % is ascertained on the basis of the cotton plants that have emerged.

soya beans (Glycine max) = test: Glycine max - growth promotion in combination with Mycorrhiza; conditions: 44 days greenhouse, fresh roots
Experimental: Glycine max—Growth Promotion in Combination with Mycorrhiza
Seed of soya beans (Glycine max) is mixed with the desired amount of active ingredient in water. After drying, the seeds are sown in pots filled with sand and perlite (1:1). For inoculation with arbuscular mycorrhiza fungi, the sand-perlite mixture is mixed beforehand with the Mycorrhiza inoculum (AMykor GmbH; Germany) in a concentration of 25 ml/L. The seed is covered with 3 cm of Lecaton (expanded clay).
Over the following 44 days, the plants are cultivated in a greenhouse in good growth conditions. The pots are watered with a nutrient solution (Hoagland and Amon, 1950, half-concentrated solution) with a low phosphate concentration (20 μM).
The untreated control plants are cultured without arbuscular mycorrhiza fungi, but under the same conditions.
The growth-promoting effect on shoot and roots is ascertained via the weight of the fresh roots of the treated plant in comparison to the untreated control.

Meloidogyne incognita = Meloidogyne incognita test (gall formation on lettuce roots)
From the text: (§2) The anticipated effect of a given combination of two active ingredients may be calculated (cf. Colby, S. R., “Calculating Synergistic and Antagonistic Responses of Herbicide Combinations”, Weeds 15, pages 20-22, 1967) as follows: • if • X is the mortality, expressed in % of the untreated control, when active ingredient A is used in an application rate of m ppm, or m g/ha • Y is the mortality, expressed in % of the untreated control, when active ingredient B is used in an application rate of n ppm, or n g/ha • E is the mortality, expressed in % of the untreated control, when active ingredients A and B are used at application rates of m and n ppm or of m and n g/ha, • then
as §1
Meloidogyne incognita Test
Solvent: 125.0 parts by weight of acetone
A suitable preparation of active ingredient is prepared by mixing one part by weight of active ingredient with the stated amounts of solvent and diluting the concentrate with water to the desired concentration. […]
After the desired time, the nematicidal effect is determined on the basis of gall formation in %. […]

[3] = tested on: army worm (Spodoptera frugiperda); test: Spodoptera frugiperda test (spray treatment), maize leaf disks; conditions: foliar, 48 h, read-out: Mortality in % after 2d
From the text: as §2, §1
Spodoptera frugiperda Test (Spray Treatment)
Solvent: 78.0 parts by weight of acetone
• 1.5 parts by weight of dimethylformamide Emulsifier: 0.5 part by weight of alkylaryl polyglycol ether […]
After the desired time, the effect in % is ascertained. […] The mortality figures determined are used for calculation according to the Colby formula (see sheet 1).

[4] = Myzus persicae, foliar, 24 h, read-out: Mortality in % after 1d
[5] = 1000 g ai/ha, 100% = all aphids killed

For `C/C=C(\C)C(=O)O[C@H]1C[C@@H](OC(C)=O)[C@@]2(C(=O)OC)CO[C@H]3[C@@H](O)[C@@](C)([C@]45O[C@@]4(C)[C@H]4C[C@@H]5O[C@@H]5OC=C[C@@]54O)[C@H]4[C@]1(CO[C@]4(O)C(=O)OC)[C@@H]32` [Azadirachtin, azadirachtin, reference compound], the mortality at 100 g/ha [1, 4] was 0%.
For `O=S(=O)(CCC(F)=C(F)F)c1ncc(Cl)s1` [Fluensulfone, fluensulfone, reference compound], the “Mortality in % after 1d” value ([1]; 2000 g ai/ha) was 0%.
`O=C(NCCc1ncc(C(F)(F)F)cc1Cl)c1ccccc1C(F)(F)F` [Fluopyram, N-{2-[3-chloro-5-(trifluoromethyl)-2-pyridinyl]ethyl}-2-trifluoromethylbenzamide, reference compound] was tested, and the “Emergence in % in comparison to untreated control” value (from here on “Emergence in % in comparison”) ([2]; 0.5 g ai/kg seed) was 100%, the “Emergence in % in comparison” value ([2]; 1 g ai/kg seed, untreated = 100) was 133% and the “Root weight in % in comparison to untreated control” value (soya beans (Glycine max); 0.1 mg/seed grain, seed treatment) was 116.90%. It also gave a mortality at 500 g/ha [1, 4] of 0%, a mortality at 1000 g/ha [1, 4] of 0% and a mortality at 0.0005 ppm (Meloidogyne incognita; Meloidogyne incognita, 504 h, read-out: Mortality in % after 21d) of 0%. For the same molecule, the mortality at 1000 g/ha [3] was 0%.
For “Bacillus amyloliquefaciens strain FZB 42”, the “Emergence in % in comparison” value ([2]; 0.075 g ai/kg seed) was 158%, the “Emergence in % in comparison” value ([2]; 0.15 g ai/kg seed) was 163% and the “Mortality in % after 1d” value ([1]; 2000 g ai/ha) was 0%.
With “Bacillus subtilis strain GB03 [Bacillus subtilis strain GB 03]” the “Emergence in % in comparison” value ([2]; 0.078 g ai/kg seed) was 158%.
In the case of “Bacillus thuringiensis subsp. tenebrionis”, the “Mortality in % after 1d” value [1, 5] is reported as 0%.
Cydia pomonella granulosis virus (CpGV) was tested, and the “Mortality in % after 1d” value [1, 5] was 0%.
Metarhizium anisopliae strain F52 was tested, and the “Mortality in % after 21d” value (Meloidogyne incognita; 5 ppm, nematicidal effect from gall formation) was 0%.
In the case of Metschnikowia fructicola, the “Mortality in % after 1d” value [1, 5] is reported as 0%.
Paecilomyces lilacinus strain 251 was tested, and the “Mortality in % after 1d” value ([1]; 5000 g ai/ha) was 0%.
For arbuscular mycorrhiza fungus, the “Root weight in % in comparison to untreated control” value (soya beans (Glycine max); Mycorrhiza inoculum 25 ml/L in sand-perlite) was 133.21%.
